# According to US20240150362A1, “Substituted Pyrrolotriazines” (Molecure S.A., priority 2022, published 2024):
# Where a name gives a salt, the structure may show the parent alone.
# Target: T1, full-length USP7 (Homo sapiens, UniProt Q93009)
# T1 construct: A 45 μl reaction volume containing full-length USP7 (0.5-1.0 nM)
# Assay: Enzymatic assay to determine IC50 of USP7 inhibitors (Ubiquitin-Rhodamine 110 cleavage)
# Assay type: biochemical
# Settings: full-length USP7 0.5-1.0 nM, 0.5 μM Ubiquitin-Rhodamine 110, 30-60 min at 25° C.
# Description: Enzymatic Assay to Determine IC50 of USP7 Inhibitors
# The IC50 is the concentration of an inhibitor where the measured enzyme activity is reduced by half. In the case of USP7 deubiquitinase, the IC50 of an USP7 inhibitor is the molar concentration of the compound that inhibits 50% of the activity observed in a USP7-mediated-ubiquitin-rhodamine cleavage assay. For the inhibitors disclosed herein, their potency was measured using the following method.
# A 45 μl reaction volume containing full-length USP7 (0.5-1.0 nM) in 50 mM HEPES pH 7.5, 150 mM NaCl, 2 mM DTT, 1 mg/ml BSA and 0.05% Tween20 was assembled in wells of 96 well half area black flat bottom plates. Test compounds were first dissolved to 30 mM stocks in DMSO and subsequently introduced to enzyme 15 min after USP7 incubation with DTT at room temperature. The enzymatic reaction was started by adding 0.5 μM Ubiquitin-Rhodamine 110 (final concentration) and allowed to proceed for 30-60 min at 25° C., 250 RPM shaking before Rhodamine fluorescence (485 nm excitation/535 nm emission) was measured using Tecan Spark M10 plate reader. The IC50 values were determined by data fitting to variable slope model four-parameter dose-response curve using GraphPad 7.05.
# T1 sequence (Q93009 whole entry): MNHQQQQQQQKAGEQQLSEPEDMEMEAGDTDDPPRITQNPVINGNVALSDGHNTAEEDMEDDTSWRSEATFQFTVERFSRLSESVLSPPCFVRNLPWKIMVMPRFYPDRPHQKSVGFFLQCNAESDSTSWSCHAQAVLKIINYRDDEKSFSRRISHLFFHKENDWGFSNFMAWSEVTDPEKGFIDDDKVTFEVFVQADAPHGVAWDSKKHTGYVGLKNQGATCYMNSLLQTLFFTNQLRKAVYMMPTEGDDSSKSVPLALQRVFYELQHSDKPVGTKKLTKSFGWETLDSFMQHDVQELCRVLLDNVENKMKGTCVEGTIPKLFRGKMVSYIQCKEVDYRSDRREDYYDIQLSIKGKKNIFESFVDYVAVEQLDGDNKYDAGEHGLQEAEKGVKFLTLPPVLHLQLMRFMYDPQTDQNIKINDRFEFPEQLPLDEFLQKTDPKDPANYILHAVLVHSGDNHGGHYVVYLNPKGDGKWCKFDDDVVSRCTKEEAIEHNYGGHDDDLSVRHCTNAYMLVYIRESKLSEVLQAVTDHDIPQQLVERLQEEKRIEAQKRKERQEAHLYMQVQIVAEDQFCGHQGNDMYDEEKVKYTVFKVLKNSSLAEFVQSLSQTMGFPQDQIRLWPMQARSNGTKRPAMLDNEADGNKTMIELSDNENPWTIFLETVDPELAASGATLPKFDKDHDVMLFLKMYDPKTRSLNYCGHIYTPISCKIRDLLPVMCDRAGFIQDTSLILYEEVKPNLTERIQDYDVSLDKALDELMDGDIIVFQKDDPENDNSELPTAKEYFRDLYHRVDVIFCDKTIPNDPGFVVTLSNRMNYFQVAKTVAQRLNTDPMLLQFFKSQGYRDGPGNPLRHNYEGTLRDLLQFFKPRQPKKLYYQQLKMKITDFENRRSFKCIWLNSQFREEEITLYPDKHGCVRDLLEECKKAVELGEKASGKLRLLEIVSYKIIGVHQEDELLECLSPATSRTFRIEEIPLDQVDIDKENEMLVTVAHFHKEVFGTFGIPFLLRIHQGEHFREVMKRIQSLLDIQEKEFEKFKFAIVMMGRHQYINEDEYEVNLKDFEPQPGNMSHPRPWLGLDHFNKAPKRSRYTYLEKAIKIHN
row,SMILES,IC50 [nM]
1,"Cc1cc(Cl)cc(-c2ncnn3cc(Cn4c(=O)ccn(C5CC5)c4=O)cc23)c1CC1CNC[C@H](C)O1 (single isomer, unassigned) [Example 106, hydrochloride]",< 500
2,"Cc1cc(Cl)cc(-c2ncnn3cc(CN4C(=O)C5C(C4=O)C5(C)C)cc23)c1C[C@@H]1CNCCO1 (stereo partly drawn) [Example 2, 3-((4-(5-chloro-3-methyl-2-(((R)-morpholin-2-yl)methyl)phenyl)pyrrolo[2,1-f][1,2,4]triazin-6-yl)methyl)-6,6-dimethyl-3-azabicyclo[3.1.0]hexane-2,4-dione hydrochloride]",< 500
3,"Cc1cc(Cl)cc(-c2ncnn3cc(CN4C(=O)C5C(C4=O)C5(C)C)cc23)c1NCC1(F)CCNCC1 (stereo not drawn) [Example 80, 3-((4-(5-chloro-2-(((4-fluoropiperidin-4-yl)methyl)amino)-3-methylphenyl)pyrrolo[2,1-f][1,2,4]triazin-6-yl)methyl)-6,6-dimethyl-3-azabicyclo[3.1.0]hexane-2,4-dione dihydrochloride]",< 500
4,"Cc1cc(Cl)cc(-c2ncnn3cc(Cn4c(=O)ccn(C(C)C)c4=O)cc23)c1CC1CNC[C@H](C)O1 (stereo partly drawn) [Example 111, 3-((4-(5-chloro-3-methyl-2-(((6S)-6-methylmorpholin-2-yl)methyl)phenyl)pyrrolo[2,1-f][1,2,4]triazin-6-yl)methyl)-1-isopropylpyrimidine-2,4(1H,3H)-dione hydrochloride]",< 500
5,"CC1(C)C2C(=O)N(Cc3cc4c(-c5cc(Cl)cc6c5N(C5CCNC5)CCC6)ncnn4c3)C(=O)C21 (racemic) [Example 51, 3-((4-(6-chloro-1-(pyrrolidin-3-yl)-1,2,3,4-tetrahydroquinolin-8-yl)pyrrolo[2,1-f][1,2,4]triazin-6-yl)methyl)-6,6-dimethyl-3-azabicyclo[3.1.0]hexane-2,4-dione hydrochloride]",< 500
6,"Cc1cc(Cl)cc(-c2ncnn3cc(Cn4c(=O)c(F)cn(C)c4=O)cc23)c1CC1CNC[C@H](C)O1 (single isomer, unassigned) [Example 108, hydrochloride]",< 500
7,"Cn1ccc(=O)n(Cc2cc3c(-c4cc(Cl)cc5ccn(CC6(F)CCNCC6)c45)ncnn3c2)c1=O [Example 61, 3-((4-(5-chloro-1-((4-fluoropiperidin-4-yl)methyl)-1H-indol-7-yl)pyrrolo[2,1-f][1,2,4]triazin-6-yl)methyl)-1-methylpyrimidine-2,4(1H,3H)-dione hydrochloride]",< 500
8,"C[C@@H]1CN(C2CCNC2)c2c(cc(Cl)cc2-c2ncnn3cc(CN4C(=O)C5C(C4=O)C5(C)C)cc23)O1 (stereo partly drawn) [Example 93, 3-((4-((2R)-7-chloro-2-methyl-4-(pyrrolidin-3-yl)-3,4-dihydro-2H-benzo[b][1,4]oxazin-5-yl)pyrrolo[2,1-f][1,2,4]triazin-6-yl)methyl)-6,6-dimethyl-3-azabicyclo[3.1.0]hexane-2,4-dione hydrochloride]",< 500

# Further lines, results first:
row,IC50 [nM],SMILES
1,< 500,"CC1(C)C2C(=O)N(Cc3cc4c(-c5cc(Cl)cc6ccn(C[C@@H]7CNCCO7)c56)ncnn4c3)C(=O)C21 (single isomer, unassigned) [Example 30, dihydrochloride]"
2,< 500,"Cc1cc(Cl)cc(-c2ncnn3cc(Cn4c(=O)ccn(C)c4=O)cc23)c1C[C@@H]1CNCCO1 (single isomer, unassigned) [Example 82, hydrochloride]"
3,< 500,"Cc1cc(Cl)cc(-c2ncnn3cc(Cn4c(=O)ccn(CC(F)(F)F)c4=O)cc23)c1C[C@@H]1CNCCO1 (single isomer, unassigned) [Example 83, hydrochloride]"
4,< 500,"CC1(C)C2C(=O)N(Cc3cc4c(-c5cc(Cl)cc6ccn(CC7(F)CCNCC7)c56)ncnn4c3)C(=O)C21 (stereo not drawn) [Example 10, 3-((4-(5-chloro-1-((4-fluoropiperidin-4-yl)methyl)-1H-indol-7-yl)pyrrolo[2,1-f][1,2,4]triazin-6-yl)methyl)-6,6-dimethyl-3-azabicyclo[3.1.0]hexane-2,4-dione hydrochloride]"
